Laboratory results taken from patent US20230293526A1, “METHOD FOR TREATING CANCER WITH A REVERSE TRANSCRIPTASE INHIBITOR” (PrimeFour Therapeutics, Inc., priority 2020, published 2023).

How the values were obtained:
human LINE-1 = assay: Human LINE-1 (L1) retrotransposition dual-luciferase reporter assay in HeLa cells; assay type: cell-based; conditions: Homo sapiens, HeLa, 72 h, read-out: Human LINE-1 IC50 (Human L1 activity inhibition)
How it was run: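 Compound dilution series (final DMSO 0.2%) added right after transfecting HeLa cells with the pYX017 L1 dual-luciferase reporter; 72 h culture at 37 °C, 5% CO2, triplicates. IC50 fitted by non-linear logistic regression to firefly-to-Renilla luminescence ratio (×10,000).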

cancer cell lines = assay: Cancer cell proliferation activity of representative nucleosides, CellTiterGlo 72 h (Example 7, Tables 8 and 9); assay type: cell-based; conditions: 72 h
How it was run: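 Percent viability was set against 0.1% DMSO (100%) and 10 μM staurosporine (0%), with signal from CellTiterGlo luminescence. Dose-response treatment began one day after seeding and lasted 72 h at 37° C under 5% or 10% CO2, with 0.1% final DMSO.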

C#C[C@]1(CO)O[C@@H](n2ccc(N)nc2=O)C[C@@H]1O [compound 7, 4-amino-1-((2R,4S,5R)-5-ethynyl-4-hydroxy-5 (hydroxymethyl)tetrahydrofuran-2-yl)pyrimidin-2(1H)-one]
IC50 (human LINE-1): 0.0097 µM | IC50 (cancer cell lines; 72 h, 5637, bladder): 1.24 µM | IC50 (cancer cell lines; CLS439, bladder): > 50 µM | IC50 (cancer cell lines; HS729, muscle): 2.1 µM | IC50 (cancer cell lines; J82, bladder): 2.77 µM | IC50 (cancer cell lines; JAR, placenta): > 50 µM | IC50 (cancer cell lines; MT3, breast): 0.57 µM | IC50 (cancer cell lines; PC3, prostate): 1.09 µM | IC50 (cancer cell lines; RD, muscle): 3.86 µM | IC50 (cancer cell lines; T24, bladder): 1.03 µM | IC50 (cancer cell lines; Homo sapiens, 22Rv1, 72 h, 22RV1, prostate): 4.8 µM | IC50 (cancer cell lines; Homo sapiens, 786-0, 72 h, 786O, kidney): 4.28 µM | IC50 (cancer cell lines; Homo sapiens, A204, 72 h, A204, muscle): 0.18 µM | IC50 (cancer cell lines; Homo sapiens, A549, 72 h, A549, lung): 2.19 µM | IC50 (cancer cell lines; Homo sapiens, A673, 72 h, A673, bone): 1.97 µM | IC50 (cancer cell lines; Homo sapiens, A2780, 72 h, A2780, ovary): 2.72 µM | IC50 (cancer cell lines; Homo sapiens, A-375, 72 h, A375, skin): 3.54 µM | IC50 (cancer cell lines; Homo sapiens, A-431, 72 h, A431, skin): 2.01 µM | IC50 (cancer cell lines; Homo sapiens, ACHN, kidney): 2.76 µM | IC50 (cancer cell lines; Homo sapiens, ASPC1, 72 h, ASPC1, pancreas): 1.23 µM | IC50 (cancer cell lines; Homo sapiens, BT-20, 72 h, BT20, breast): > 50 µM | IC50 (cancer cell lines; Homo sapiens, BXPC-3, 72 h, BXPC3, pancreas): 4.12 µM | IC50 (cancer cell lines; Homo sapiens, C-33-A, C33A, endometrial): 1.03 µM | IC50 (cancer cell lines; Homo sapiens, CAKI-1, 72 h, CAKI1, kidney): 0.45 µM | IC50 (cancer cell lines; Homo sapiens, COLO 205, 72 h, COLO205, colon): 0.29 µM | IC50 (cancer cell lines; Homo sapiens, COLO-678, 72 h, COLO678, colon): > 50 µM | IC50 (cancer cell lines; Homo sapiens, Ca-Ski, CASKI, endometrial): > 50 µM | IC50 (cancer cell lines; Homo sapiens, Calu-6, 72 h, CALU6, lung): 6.33 µM | IC50 (cancer cell lines; Homo sapiens, DLD-1, 72 h, DLD1, colon): 4.63 µM | IC50 (cancer cell lines; Homo sapiens, DU-145, 72 h, DU145, prostate): 3.4 µM | IC50 (cancer cell lines; Homo sapiens, EFO-21, 72 h, EFO21, ovary): > 50 µM | IC50 (cancer cell lines; Homo sapiens, EJ-28, 72 h, EJ28, bladder): 3.05 µM | IC50 (cancer cell lines; Homo sapiens, Granta-519, 72 h, GRANTA-519, hematological): 0.33 µM | IC50 (cancer cell lines; Homo sapiens, HCT-15, 72 h, HCT15, colon): 3.28 µM | IC50 (cancer cell lines; Homo sapiens, HCT-116, 72 h, HCT116, colon): 2.44 µM | IC50 (cancer cell lines; Homo sapiens, HEK293, 72 h, HEK293, kidney): > 50 µM | IC50 (cancer cell lines; Homo sapiens, HL-60, 72 h, HL-60, hematological): 2.03 µM | IC50 (cancer cell lines; Homo sapiens, HT-29, 72 h, HT29, colon): 4.06 µM | IC50 (cancer cell lines; Homo sapiens, HT-1080, 72 h, HT1080, connective tissue): 1.58 µM | IC50 (cancer cell lines; Homo sapiens, HeLa, endometrial): 2.11 µM | IC50 (cancer cell lines; Homo sapiens, HepG2, 72 h, HEPG2, liver): 3.08 µM | IC50 (cancer cell lines; Homo sapiens, Hs-578T, HS578T, breast): 4.73 µM | IC50 (cancer cell lines; Homo sapiens, IGROV-1, 72 h, IGROV1, ovary): 3.42 µM | IC50 (cancer cell lines; Homo sapiens, IMR-90, 72 h, IMR90, lung): > 50 µM | IC50 (cancer cell lines; Homo sapiens, JEG-3, 72 h, JEG3, placenta): > 50 µM | IC50 (cancer cell lines; Homo sapiens, JIMT-1, 72 h, JIMT1, breast): 0.82 µM | IC50 (cancer cell lines; Homo sapiens, K562, 72 h, K-562, hematological): 3.52 µM | IC50 (cancer cell lines; Homo sapiens, Kasumi 1, 72 h, KASUMI-1, hematological): 0.32 µM | IC50 (cancer cell lines; Homo sapiens, L-363, 72 h, L-363, hematological): > 50 µM | IC50 (cancer cell lines; Homo sapiens, LoVo, colon): 1.9 µM | IC50 (cancer cell lines; Homo sapiens, MCF7, 72 h, MCF7, breast): > 50 µM | IC50 (cancer cell lines; Homo sapiens, MDA-MB-231, 72 h, MDAMB231, breast): 0.48 µM | IC50 (cancer cell lines; Homo sapiens, MDA-MB-435, 72 h, MDAMB435, skin): 3.49 µM | IC50 (cancer cell lines; Homo sapiens, MDA-MB-436, 72 h, MDAMB436, breast): 3.8 µM | IC50 (cancer cell lines; Homo sapiens, MDA-MB-468, 72 h, MDAMB468, breast): > 50 µM | IC50 (cancer cell lines; Homo sapiens, MG-63, 72 h, MG63, bone): 2.93 µM | IC50 (cancer cell lines; Homo sapiens, MHH-ES-1, 72 h, MHHES1, bone): 2.06 µM | IC50 (cancer cell lines; Homo sapiens, MIA PaCa-2, 72 h, MIAPACA2, pancreas): 5.54 µM | IC50 (cancer cell lines; Homo sapiens, MINO, hematological): 0.2 µM | IC50 (cancer cell lines; Homo sapiens, MV4-11, 72 h, MV4-11, hematological): 4.32 µM | IC50 (cancer cell lines; Homo sapiens, NCI-H23, 72 h, NCI-H23, lung): 2.79 µM | IC50 (cancer cell lines; Homo sapiens, NCI-H82, 72 h, NCIH82, lung): 17.1 µM | IC50 (cancer cell lines; Homo sapiens, NCI-H292, 72 h, NCIH292, lung): 1.94 µM | IC50 (cancer cell lines; Homo sapiens, NCI-H460, 72 h, NCIH460, ung): 2.99 µM | IC50 (cancer cell lines; Homo sapiens, OVCAR-3, 72 h, OVCAR3, ovary): 2.39 µM | IC50 (cancer cell lines; Homo sapiens, OVCAR-4, 72 h, OVCAR4, ovary): > 50 µM | IC50 (cancer cell lines; Homo sapiens, PANC-1, 72 h, PANC1, pancreas): > 50 µM | IC50 (cancer cell lines; Homo sapiens, PLC-PRF-5, 72 h, PLCPRF5, liver): > 50 µM | IC50 (cancer cell lines; Homo sapiens, Panc1005, 72 h, PANC1005, pancreas): 2.57 µM | IC50 (cancer cell lines; Homo sapiens, Ramos, hematological): 0.37 µM | IC50 (cancer cell lines; Homo sapiens, SAOS-2, 72 h, SAOS2, bone): 0.64 µM | IC50 (cancer cell lines; Homo sapiens, SK-BR-3, 72 h, SKBR3, breast): 2.11 µM | IC50 (cancer cell lines; Homo sapiens, SK-HEP1, 72 h, SKHEP1, liver): 1.29 µM | IC50 (cancer cell lines; Homo sapiens, SK-LMS-1, 72 h, SKLMS1, uterus): 4.2 µM | IC50 (cancer cell lines; Homo sapiens, SK-MEL-5, 72 h, SKMEL5, skin): > 50 µM | IC50 (cancer cell lines; Homo sapiens, SK-MEL-28, 72 h, SKMEL28, skin): > 50 µM | IC50 (cancer cell lines; Homo sapiens, SK-OV-3, 72 h, SKOV3, ovary): 3.11 µM | IC50 (cancer cell lines; Homo sapiens, SU-DHL10, 72 h, SU-DHL-10, hematological): 0.69 µM | IC50 (cancer cell lines; Homo sapiens, SU-DHL-6, 72 h, SU-DHL-6, hematological): 1.06 µM | IC50 (cancer cell lines; Homo sapiens, SW-620, 72 h, SW620, colon): 2.93 µM | IC50 (cancer cell lines; Homo sapiens, TE-671, 72 h, TE671, muscle): 3.49 µM | IC50 (cancer cell lines; Homo sapiens, THP-1, 72 h, THP-1, hematological): 3.43 µM | IC50 (cancer cell lines; Homo sapiens, U2OS, bone): > 50 µM | IC50 (cancer cell lines; Homo sapiens, UMUC3, 72 h, UMUC3, bladder): 3.07 µM | IC50 (cancer cell lines; Homo sapiens, UO-31, 72 h, UO31, kidney): 1.53 µM | IC50 (cancer cell lines; Homo sapiens, WSU-NHL, hematological): 0.34 µM | IC50 (cancer cell lines; NCI-H358M, NCIH358M, lung): 0.29 µM | IC50 (cancer cell lines; PBMC, hematological): > 50 µM | IC50 (cancer cell lines; RD-ES, RDES, bone): > 50 µM
